Data on one molecule can be found in patent US20230348376A1 (TEIJIN PHARMA LIMITED, priority 2020, published 2023).

Data set [1] concerns mouse neural stem cells (NSCs). The data set is described as follows: Promoting activity in oligodendrocyte differentiation of mouse neural stem cell (GalC immunostaining). The format is cell-based. Conditions: day 10, N=5. As to the method: To NSC basal medium (100 mL) included in this product, B27 (1 mL), Penicillin-Streptomycin (1 mL), Glutamine (1 mL), bFGF (20 μL), EGF (10 μL), and Heparin (100 μL) were added to prepare the growth medium. Mouse neural stem cells were reconstituted in a T-25 flask using the growth medium and proliferated as a neurosphere by suspension culture. The cells were expanded by passaging at a split ratio=1:2 in a CO2 incubator (5% CO2, 37° C., wet) to obtain the required number of cells. ACCUTASE (Innovative Cell Technologies, Cat. No. AT104) was used as the passage reagent.
The differentiation medium containing test substance was prepared to a target final concentration by diluting a solution of 20 mM compound in DMSO to 10-fold with DMSO and then to 2×10^5-fold with the differentiation medium. Additive-free differentiation medium for control was prepared by diluting DMSO to 2×10^5-fold with the differentiation medium to be a final concentration of 5×10^−5%.
The mouse neural stem cells were seeded on a poly-L-Lysine/Laminin-coated 96-well plate at a cell density of 2.0×10^4 cells/100 μL/well using the differentiation medium and the culture was started in a CO2 incubator (5% CO2, 37° C., wet). The next day, the medium was replaced with the differentiation medium containing a test substance or an additive-free differentiation medium for control, and evaluation of the test substance (N=5) was started (day 0). The medium was replaced every other day by 60% of the medium in the wells. On day 10, cells were fixed and immunostained.
After the medium was removed, the cells were fixed by adding 100 μL of 4% paraformaldehyde-PBS and being incubated at room temperature for 30 minutes. Next, the cells were washed 3 times with PBS, 100 μL of 5% Goat Serum/PBS was added thereto, and the mixture was incubated at room temperature for 30 minutes to perform blocking and membrane permeation treatment. […] After the cells were washed 3 times with PBS, 100 μL of PBS was added to the wells, and the wells were photographed with fluorescence microscopy. Images were taken under the same condition in all wells, and blue fluorescence and green fluorescence were simultaneously photographed.
Using the hybrid cell counting software provided in the fluorescence microscope (Keyence, BZ-X700), co-localized spots of green fluorescence and blue fluorescence were extracted, and the number of these spots was defined as the total number of GalC-positive cells, and the oligodendrocyte differentiation ratio was calculated by the following calculation:the total number of GalC-positive cells/the number of nuclei (number of blue fluorescence spots). A significant difference test was performed by t-test between the additive-free group and the sample-added group.

Data set [2] is described as follows: Evaluation of brain penetration in mice (blood and brain concentration at brain Cmax). The format is in vivo, mouse. Conditions: 1 mg/kg single oral dose, C57BL/6J mice. The method in brief: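 Male C57BL/6J mice (8 weeks, n=3) dosed orally once at 1 […] mg/kg; plasma and brain collected at 0.25, 0.5, 1, 2, 4 and 8 h. Compound extracted with acetonitrile from brain homogenate and plasma, quantified by LC/MS/MS.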

The target in another data set is T1, human VDR (Homo sapiens, UniProt P11473).
T1 sequence (P11473 1-427): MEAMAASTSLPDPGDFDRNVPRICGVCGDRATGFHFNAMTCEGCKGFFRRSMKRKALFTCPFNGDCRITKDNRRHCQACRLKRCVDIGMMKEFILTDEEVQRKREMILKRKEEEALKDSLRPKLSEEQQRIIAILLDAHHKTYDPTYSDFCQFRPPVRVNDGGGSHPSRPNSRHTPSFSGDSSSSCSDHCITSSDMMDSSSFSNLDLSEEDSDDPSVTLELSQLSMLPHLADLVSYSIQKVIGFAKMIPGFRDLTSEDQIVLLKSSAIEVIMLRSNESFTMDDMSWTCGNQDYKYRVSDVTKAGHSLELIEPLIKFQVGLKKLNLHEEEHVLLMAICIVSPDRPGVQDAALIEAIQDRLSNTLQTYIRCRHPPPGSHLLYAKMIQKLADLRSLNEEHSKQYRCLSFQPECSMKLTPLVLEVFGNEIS
T1 sequence (P19793 1-462 partner): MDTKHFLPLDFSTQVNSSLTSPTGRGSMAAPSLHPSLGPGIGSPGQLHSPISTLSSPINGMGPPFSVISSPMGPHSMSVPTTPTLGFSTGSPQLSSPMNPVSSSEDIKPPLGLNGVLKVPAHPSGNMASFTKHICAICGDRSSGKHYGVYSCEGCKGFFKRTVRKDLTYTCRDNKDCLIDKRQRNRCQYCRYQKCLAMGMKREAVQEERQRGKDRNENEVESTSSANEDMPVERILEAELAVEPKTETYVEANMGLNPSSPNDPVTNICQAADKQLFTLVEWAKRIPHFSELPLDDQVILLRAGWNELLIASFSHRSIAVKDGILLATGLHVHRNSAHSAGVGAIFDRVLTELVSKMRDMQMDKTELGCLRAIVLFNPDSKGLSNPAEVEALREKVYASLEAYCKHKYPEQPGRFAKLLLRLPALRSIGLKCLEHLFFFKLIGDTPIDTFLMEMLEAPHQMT
Nature of the data set: Evaluation of VDR transcription activity in human osteoblasts (HOS cells), luciferase reporter. As to conditions: Activity (EC50, VDR transcription activity), HOS cells transfected with human VDR, human RXRα and DR3 luciferase reporter; 21 hours. On the technique in general: Reporter assays use an easily measured gene product as a stand-in for the process of interest.

In data set [3] the test system is rat oligodendrocyte progenitor cells. Nature of the data set: Promotive activity of rat oligodendrocyte progenitor cell differentiation-2 (immunostaining of MBP). As to conditions: Test 2; vitamin D derivative 2 μM, T3 30 nM; 4 days. In kind it is cell-based. In a few lines:
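Rat OPCs prepared by shaking in separation medium about 22 h at 37 °C, 200 rpm, and collecting the supernatant.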

Broadly, the pEC50 is the EC50 on a negative log10 scale, so that one unit is a factor of ten.

pEC50: −log10 of the molar value.

In the case of `C[C@H](CCN1CCOCC1)[C@H]1CC[C@H]2/C(=C/C=C3C[C@@H](O)C[C@H](O)C3)CCC[C@]12C` [Compound D023, (1R,3R)-5-(2-((1R,3aS,7aR,E)-7a-methyl-1-((R)-4-morpholinobutan-2-yl)octahydro-4H-inden-4-ylidene)ethylidene)cyclohexane-1,3-diol], the “Gal/C positive ratio Average value” in data set [1] (10 nM) is reported as 8.63; in data set [1] (100 nM) it was 11.51; in data set [1] (1000 nM) it was 12.19. For the same molecule, the “Concentration in blood (mean ± SD) at brain Cmax” value in data set [2] (n=3) is reported as 580 ± 107 nM. Also, the “Concentration in brain (mean ± SD) at brain Cmax” value in data set [2] (n=3) is 595 ± 23 pmol/g. Further, the Kp in data set [2] (male, C57BL/6J, mouse, brain/plasma, po, 1 mg/kg, read-out: Concentration in brain/in blood ratio at brain Cmax) is 1.03. The same molecule had a pEC50 on human VDR of 7.00 to 8.00. For the same molecule, the “Mean (number of MBP-positive cells/number of Hoechst33342-positive cells)” value in data set [3] was 0.36.
